# Results reported in PubChem BioAssay AID256 (DTP/NCI, 2004).
# Where “and” joins values, the source holds several entries; their conditions need not be identical. Identical values can stand only once. Inconclusive results and toxic doses are left out.
# System: CD2F1 mice, L1210 leukemia ip, survival T/C
# Assay: NCI In Vivo Anticancer Drug Screen. Data for tumor model L1210 Leukemia (intraperitoneal) in CD2F1 (CDF1) mice
# Conditions: higher = longer survival
# In short: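 Compound-dosed mice with transplantable tumor versus matched vehicle controls; endpoint ratio T/C reported.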
# [1] = endpoint: mean survival time, dose: 100.0 mg/kg/injection, schedule: Q04DX003 (ip), vehicle: saline with Tween-80
# [2] = endpoint: mean survival time, dose: 200.0 mg/kg/injection, schedule: Q04DX003 (ip), vehicle: saline with Tween-80
# [3] = endpoint: mean survival time, dose: 400.0 mg/kg/injection, schedule: Q04DX003 (ip), vehicle: saline with Tween-80
# [4] = endpoint: mean survival time, dose: 100.0 mg/kg/injection, schedule: Q04DX002 (ip), vehicle: saline
# [5] = endpoint: mean survival time, dose: 200.0 mg/kg/injection, schedule: Q01DX009 (ip), vehicle: saline with Tween-80
# [6] = endpoint: mean survival time, dose: 100.0 mg/kg/injection, schedule: Q01DX009 (ip), vehicle: saline
# [7] = endpoint: mean survival time, dose: 200.0 mg/kg/injection, schedule: Q01DX009 (ip), vehicle: saline
# [8] = endpoint: mean survival time, dose: 100.0 mg/kg/injection, schedule: Q01DX009 (ip), vehicle: saline with Tween-80
# [9] = endpoint: mean survival time, dose: 400.0 mg/kg/injection, schedule: Q01DX009 (ip), vehicle: saline with Tween-80
smiles,measurement,setting,value
COc1cc(-c2ccc(N=Nc3ccc4c(S(=O)(=O)O)cc(S(=O)(=O)O)c(N)c4c3O)c(OC)c2)ccc1N=Nc1ccc2c(S(=O)(=O)O)cc(S(=O)(=O)O)c(N)c2c1O,T/C,"endpoint: mean survival time, dose: 6.25 mg/kg/injection, schedule: Q01DX009 (ip), vehicle: saline",100 % of control
same,T/C,"endpoint: mean survival time, dose: 12.5 mg/kg/injection, schedule: Q01DX009 (ip), vehicle: saline",100 % of control
same,T/C,"endpoint: mean survival time, dose: 25.0 mg/kg/injection, schedule: Q01DX009 (ip), vehicle: saline",105 % of control
c1cc[c]([Sn]([NH]c2ncnc3[nH]cnc23)([NH]c2ncnc3[nH]cnc23)[c]2ccccc2)cc1,T/C,"endpoint: median survival time, dose: 12.5 mg/kg/injection, schedule: Q01DX009 (ip), vehicle: saline with Tween-80",102 % of control
same,T/C,"endpoint: median survival time, dose: 12.5 mg/kg/injection, schedule: Q01DX009 (ip), vehicle: suspension in saline",98 % of control
same,T/C,"endpoint: median survival time, dose: 25.0 mg/kg/injection, schedule: Q01DX009 (ip), vehicle: saline with Tween-80",113 % of control
same,T/C,"endpoint: median survival time, dose: 25.0 mg/kg/injection, schedule: Q01DX009 (ip), vehicle: saline",154 % of control
same,T/C,"endpoint: median survival time, dose: 25.0 mg/kg/injection, schedule: Q01DX009 (ip), vehicle: suspension in saline",100 % of control
same,T/C,"endpoint: median survival time, dose: 50.0 mg/kg/injection, schedule: Q01DX009 (ip), vehicle: saline with Tween-80",118 % of control
same,T/C,"endpoint: median survival time, dose: 50.0 mg/kg/injection, schedule: Q01DX009 (ip), vehicle: suspension in saline",102 % of control
same,T/C,"endpoint: median survival time, dose: 100.0 mg/kg/injection, schedule: Q01DX009 (ip), vehicle: saline with Tween-80",112 % of control
same,T/C,"endpoint: median survival time, dose: 100.0 mg/kg/injection, schedule: Q01DX009 (ip), vehicle: saline",166 % of control
same,T/C,"endpoint: median survival time, dose: 100.0 mg/kg/injection, schedule: Q01DX009 (ip), vehicle: suspension in saline",102 % of control
same,T/C,"endpoint: median survival time, dose: 200.0 mg/kg/injection, schedule: Q01DX009 (ip), vehicle: saline with Tween-80",86 % of control
same,T/C,"endpoint: median survival time, dose: 200.0 mg/kg/injection, schedule: Q01DX009 (ip), vehicle: saline",203 % of control
same,T/C,"endpoint: median survival time, dose: 200.0 mg/kg/injection, schedule: Q01DX009 (ip), vehicle: suspension in saline",112 % of control
CNc1ccc(Br)c2c1C(=O)c1ccccc1C2=O,T/C,[1],97 % of control
same,T/C,[2],101 % of control
same,T/C,[3],95 % of control
O=C1NC(=O)C2(CCN(Cc3ccccc3)CC2)C(=O)N1,T/C,"endpoint: mean survival time, dose: 75.0 mg/kg/injection, schedule: Q01DX001 (ip), vehicle: saline",96 % of control
same,T/C,"endpoint: mean survival time, dose: 150.0 mg/kg/injection, schedule: Q01DX001 (ip), vehicle: saline",98 % of control
same,T/C,"endpoint: mean survival time, dose: 300.0 mg/kg/injection, schedule: Q01DX001 (ip), vehicle: saline",96 % of control
N#CC(CC(=O)c1ccccc1)c1ccccc1 (stereo unspecified),T/C,[1],90 % of control
same,T/C,[2],102 % of control
same,T/C,[3],104 % of control
CC(SC(=N)N)C(=N)N (stereo unspecified),T/C,"endpoint: mean survival time, dose: 25.0 mg/kg/injection, schedule: Q04DX002 (ip), vehicle: saline",97 % of control
same,T/C,"endpoint: mean survival time, dose: 50.0 mg/kg/injection, schedule: Q04DX002 (ip), vehicle: saline",90 % of control
same,T/C,[4],105 % of control
CCOC(=O)CCCSc1nn(C2OC(COC(=O)c3ccccc3)C(OC(=O)c3ccccc3)C2OC(=O)c2ccccc2)c(=O)[nH]c1=O (stereo unspecified),T/C,"endpoint: mean survival time, dose: 12.5 mg/kg/injection, schedule: Q01DX005 (ip), vehicle: distilled water + Tween-80",93 % of control
same,T/C,"endpoint: mean survival time, dose: 25.0 mg/kg/injection, schedule: Q01DX005 (ip), vehicle: distilled water + Tween-80",90 % of control
same,T/C,"endpoint: mean survival time, dose: 50.0 mg/kg/injection, schedule: Q01DX005 (ip), vehicle: distilled water + Tween-80",93 % of control
same,T/C,"endpoint: mean survival time, dose: 100.0 mg/kg/injection, schedule: Q01DX005 (ip), vehicle: distilled water + Tween-80",88 % of control
same,T/C,"endpoint: mean survival time, dose: 200.0 mg/kg/injection, schedule: Q01DX005 (ip), vehicle: distilled water + Tween-80",92 % of control
COc1ccc(OC)c(NC(=O)OCC(F)(F)F)c1,T/C,"endpoint: mean survival time, dose: 50.0 mg/kg/injection, schedule: Q01DX009 (ip), vehicle: saline with Tween-80",97 % of control
same,T/C,[5],103 % of control
COc1ccc(C(CO)CC(=O)NCCN(C)C)cc1 (stereo unspecified),T/C,[4],100 % of control
same,T/C,"endpoint: mean survival time, dose: 200.0 mg/kg/injection, schedule: Q04DX002 (ip), vehicle: saline",107 % of control
BrC1CCC([Si](c2ccccc2)(c2ccccc2)c2ccccc2)CC1 (stereo unspecified),T/C,[1],87 % of control
same,T/C,[2],93 % of control
same,T/C,[3],93 % of control
CNC=O,T/C,[6],103 % of control and 111 % of control
same,T/C,[7],112 % of control
same,T/C,"endpoint: mean survival time, dose: 800.0 mg/kg/injection, schedule: Q01DX009 (ip), vehicle: saline",164 % of control
O=C([O-])c1ccccc1[I+]c1ccccc1,T/C,"endpoint: mean survival time, dose: 100.0 mg/kg/injection, schedule: Q01DX001 (ip), vehicle: Klucel (hydroxypropylcellulose) (HPC)",107 % of control
same,T/C,"endpoint: mean survival time, dose: 100.0 mg/kg/injection, schedule: Q01DX009 (ip), vehicle: saline sonified",102 % of control
same,T/C,[1],103 % of control
same,T/C,"endpoint: mean survival time, dose: 200.0 mg/kg/injection, schedule: Q01DX001 (ip), vehicle: Klucel (hydroxypropylcellulose) (HPC)",93 % of control
same,T/C,"endpoint: mean survival time, dose: 200.0 mg/kg/injection, schedule: Q01DX009 (ip), vehicle: saline sonified",94 % of control
same,T/C,[2],101 % of control
same,T/C,"endpoint: mean survival time, dose: 400.0 mg/kg/injection, schedule: Q01DX001 (ip), vehicle: Klucel (hydroxypropylcellulose) (HPC)",111 % of control
same,T/C,"endpoint: mean survival time, dose: 400.0 mg/kg/injection, schedule: Q01DX009 (ip), vehicle: saline sonified",102 % of control
same,T/C,[3],101 % of control
CCOC(=O)CC1OCCO1,T/C,[1],98 % of control
same,T/C,[2],103 % of control
same,T/C,[3],101 % of control
O=C(O)/C=C/C(=O)NCCc1c[nH]c2ccccc12,T/C,[8],98 % of control
same,T/C,[1],93 % of control
same,T/C,[5],95 % of control
same,T/C,[2],95 % of control
same,T/C,[9],95 % of control
same,T/C,[3],95 % of control
O=C(CCCCC(=O)N/N=C/c1ccco1)N/N=C/c1ccco1,T/C,[8],92 % of control
same,T/C,[5],88 % of control
same,T/C,[9],93 % of control
O=C(O)C(O)C(O)C(O)C(O)C(O)CO.[NH-]C1CCCCC1[NH-].[Pt+2] (stereo unspecified),T/C,"endpoint: median survival time, dose: 12.5 mg/kg/injection, schedule: Q04DX003 (ip), vehicle: saline",153 % of control and 178 % of control
same,T/C,"endpoint: median survival time, dose: 25.0 mg/kg/injection, schedule: Q04DX003 (ip), vehicle: saline",266 % of control and 297 % of control
same,T/C,"endpoint: median survival time, dose: 50.0 mg/kg/injection, schedule: Q04DX003 (ip), vehicle: saline",175 % of control and 375 % of control
same,T/C,"endpoint: median survival time, dose: 100.0 mg/kg/injection, schedule: Q04DX003 (ip), vehicle: saline",103 % of control
COc1cc(C2c3cc4c(cc3C(OC3CCCCO3)C3COC(=O)C23)OCO4)cc(OC)c1OC (stereo unspecified),T/C,"endpoint: median survival time, dose: 1.56 mg/kg/injection, schedule: Q01DX009 (ip), vehicle: Klucel (hydroxypropylcellulose) (HPC)",109 % of control
same,T/C,"endpoint: median survival time, dose: 3.12 mg/kg/injection, schedule: Q01DX009 (ip), vehicle: Klucel (hydroxypropylcellulose) (HPC)",120 % of control
same,T/C,"endpoint: median survival time, dose: 3.13 mg/kg/injection, schedule: Q01DX009 (ip), vehicle: Klucel (hydroxypropylcellulose) (HPC)",114 % of control
same,T/C,"endpoint: median survival time, dose: 6.25 mg/kg/injection, schedule: Q01DX009 (ip), vehicle: Klucel (hydroxypropylcellulose) (HPC)",120 % of control
same,T/C,"endpoint: median survival time, dose: 12.5 mg/kg/injection, schedule: Q01DX009 (ip), vehicle: Klucel (hydroxypropylcellulose) (HPC)",101 % of control
O=C(Nc1ccccc1)OCC1CC2CCC1C2 (stereo unspecified),T/C,[8],87 % of control
same,T/C,[5],93 % of control
same,T/C,[9],95 % of control
c1cc(NC2CCCCC2)ccc1CN1CCOCC1,T/C,"endpoint: mean survival time, dose: 12.5 mg/kg/injection, schedule: Q01DX009 (ip), vehicle: saline + Tween-80 + alcohol",99 % of control and 100 % of control
same,T/C,"endpoint: mean survival time, dose: 25.0 mg/kg/injection, schedule: Q01DX009 (ip), vehicle: saline + Tween-80 + alcohol",99 % of control and 102 % of control
same,T/C,"endpoint: mean survival time, dose: 50.0 mg/kg/injection, schedule: Q01DX009 (ip), vehicle: saline + Tween-80 + alcohol",97 % of control and 100 % of control
same,T/C,"endpoint: mean survival time, dose: 100.0 mg/kg/injection, schedule: Q01DX009 (ip), vehicle: saline + Tween-80 + alcohol",99 % of control and 103 % of control
same,T/C,"endpoint: mean survival time, dose: 200.0 mg/kg/injection, schedule: Q01DX009 (ip), vehicle: saline + Tween-80 + alcohol",94 % of control and 100 % of control
same,T/C,"endpoint: mean survival time, dose: 400.0 mg/kg/injection, schedule: Q01DX009 (ip), vehicle: saline + Tween-80 + alcohol",97 % of control and 100 % of control
Cc1cccc2c(=O)c3ccccc3oc12,T/C,"endpoint: mean survival time, dose: 100.0 mg/kg/injection, schedule: Q04DX003 (ip), vehicle: saline",102 % of control
same,T/C,"endpoint: mean survival time, dose: 200.0 mg/kg/injection, schedule: Q04DX003 (ip), vehicle: saline",102 % of control
same,T/C,"endpoint: mean survival time, dose: 400.0 mg/kg/injection, schedule: Q04DX003 (ip), vehicle: saline",104 % of control
CC1=CC(=O)OC1CC(=O)O (stereo unspecified),T/C,"endpoint: mean survival time, dose: 50.0 mg/kg/injection, schedule: Q01DX009 (ip), vehicle: saline",97 % of control
same,T/C,[6],97 % of control
same,T/C,[7],103 % of control
CCCCCCCCCCCC1=C(O)C(=O)C=C(O)C1=O,T/C,"endpoint: mean survival time, dose: 12.5 mg/kg/injection, schedule: Q01DX001 (ip), vehicle: saline",102 % of control
same,T/C,"endpoint: mean survival time, dose: 25.0 mg/kg/injection, schedule: Q01DX001 (ip), vehicle: saline",123 % of control
same,T/C,"endpoint: mean survival time, dose: 50.0 mg/kg/injection, schedule: Q01DX001 (ip), vehicle: saline",101 % of control
